Reference: patent US20060069132A1, “Azolecarboxamide herbicides” (priority 2004, published 2006)

Assays:
barnyardgrass = test: Test C flooded paddy test; type: in vivo, Echinochloa crus-galli; conditions: for Plant response rating, Barnyardgrass: 500 g ai/ha, visual rating after 12 to 14 days
Summary of the method: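 Postemergence sprays applied to plants 2 to 18 cm tall (1- to 4-leaf stage); paddy species grown to 2-leaf stage under flooding. After 12 to 14 days in greenhouse, visual rating versus untreated controls on 0–100 scale (0 no effect, 100 complete control).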

woolly cupgrass = test: Test C pre-/postemergence herbicide test; type: in vivo, Eriochloa villosa; conditions: for Plant response rating (0 = no effect, 100 = complete control), Cupgrass, Woolly / Plant response rating, Cupgrass, Woolly: preemergence
Summary of the method: (§1)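 Preemergence: seeds planted and treated with compound in non-phytotoxic solvent with surfactant; postemergence: plants at 2 to 18 cm (1- to 4-leaf stage) sprayed likewise. Kept in greenhouse 12 to 14 days, then visually rated against controls, 0 (no effect) to 100 (complete control).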

[1] = system: common (oilseed) sunflower; test: Test C pre-/postemergence herbicide test; type: in vivo, Helianthus annuus; conditions: for Plant response rating (0 = no effect, 100 = complete control), Sunflower / Plant response rating, Sunflower: preemergence
Summary of the method: as §1

giant foxtail = test: Test C pre-/postemergence herbicide test; type: in vivo, Setaria faberi; conditions: for Plant response rating (0 = no effect, 100 = complete control), Foxtail, Giant / Plant response rating, Foxtail, Giant: preemergence
Summary of the method: as §1

bermudagrass = test: Test C pre-/postemergence herbicide test; type: in vivo, Cynodon dactylon; conditions: for Plant response rating (0 = no effect, 100 = complete control), Bermudagrass / Plant response rating, Bermudagrass: preemergence
Summary of the method: as §1

velvetleaf = test: Test C pre-/postemergence herbicide test; type: in vivo, Abutilon theophrasti; conditions: for Plant response rating (0 = no effect, 100 = complete control), Velvetleaf / Plant response rating, Velvetleaf: preemergence
Summary of the method: as §1

yellow nutsedge = test: Test C pre-/postemergence herbicide test; type: in vivo, Cyperus esculentus; conditions: for Plant response rating (0 = no effect, 100 = complete control), Nutsedge, Yellow / Plant response rating, Nutsedge, Yellow: preemergence
Summary of the method: as §1

[2] = 62 g ai/ha, scale 0 to 100 (0 no effect, 100 complete control)
[3] = 250 g ai/ha, scale of 0 to 100, 0 is no effect, 100 is complete control
[4] = scale 0 to 100 (0 no effect, 100 complete control)
[5] = 125 g ai/ha, scale 0 (no effect) to 100 (complete control), visual, 12 to 14 days
[6] = 250 g ai/ha, scale 0 to 100 (0 no effect, 100 complete control), visual, 12 to 14 days
[7] = Preemergence, 500 g ai/ha, scale 0 to 100, 0 no effect, 100 complete control
[8] = 500 g ai/ha, scale 0 to 100 (0 no effect, 100 complete control), visual, 12 to 14 days

Which results are given for `C=CCn1nc(C(C)(C)C)cc1C(=O)Nc1cccc(C(=O)NCC)c1` [Compound 56]?
Barnyardgrass plant response rating (barnyardgrass; [2]): 0; Barnyardgrass plant response rating (barnyardgrass; 125 g ai/ha, scale of 0 to 100, 0 is no effect, 100 is complete control): 20; Barnyardgrass plant response rating (barnyardgrass; [3]): 65; Plant response rating, Barnyardgrass (barnyardgrass; [4]): 80; Plant response rating (0 = no effect, 100 = complete control), Cupgrass, Woolly (woolly cupgrass; 62 g ai/ha): 0; Plant response rating, Cupgrass, Woolly (woolly cupgrass; [5]): 0; Plant response rating, Cupgrass, Woolly (woolly cupgrass; [6]): 35; Cupgrass, Woolly plant response rating (woolly cupgrass; [7]): 40; Plant response rating (0 = no effect, 100 = complete control), Sunflower ([1]; 62 g ai/ha): 0; Plant response rating, Sunflower [1, 5]: 0; Plant response rating, Sunflower [1, 6]: 0; Sunflower plant response rating [1, 7]: 0; Plant response rating (0 = no effect, 100 = complete control), Foxtail, Giant (giant foxtail; 62 g ai/ha): 45; Plant response rating, Foxtail, Giant (giant foxtail; [5]): 85; Plant response rating, Foxtail, Giant (giant foxtail; [6]): 100; Foxtail, Giant plant response rating (giant foxtail; [7]): 100; Plant response rating (0 = no effect, 100 = complete control), Bermudagrass (bermudagrass; 62 g ai/ha): 85; Plant response rating, Bermudagrass (bermudagrass; [5]): 90; Plant response rating, Bermudagrass (bermudagrass; [6]): 95; Bermudagrass plant response rating (bermudagrass; [7]): 95; Plant response rating (0 = no effect, 100 = complete control), Velvetleaf (velvetleaf; 62 g ai/ha): 20; Plant response rating, Velvetleaf (velvetleaf; [5]): 35; Plant response rating, Velvetleaf (velvetleaf; [6]): 50; Velvetleaf plant response rating (velvetleaf; [7]): 100; Plant response rating (0 = no effect, 100 = complete control), Nutsedge, Yellow (yellow nutsedge; 62 g ai/ha): 0; Plant response rating, Nutsedge, Yellow (yellow nutsedge; [5]): 0; Plant response rating, Nutsedge, Yellow (yellow nutsedge; [6]): 0; Nutsedge, Yellow plant response rating (yellow nutsedge; [7]): 20

How did the “Barnyardgrass plant response rating” value (barnyardgrass; [2]) turn out when `CCc1nn(C(C)C)nc1C(=O)Nc1cccc(C(=S)N(C)C)c1` [Compound 409] was run?
Its value is 20.

And the “Barnyardgrass plant response rating” value (barnyardgrass; 125 g ai/ha, scale 0 to 100 (0 no effect, 100 complete control))?
The value was 20.

And the “Barnyardgrass plant response rating” value (barnyardgrass; [3])?
The value was 40.

What about the “Plant response rating, Barnyardgrass” value (barnyardgrass; [4]) of the same molecule?
Its value is 60.

What about the “Plant response rating, Cupgrass, Woolly” value (woolly cupgrass; 62 g ai/ha, scale 0 to 100) of the same molecule?
Its value is 40.

What about the “Plant response rating (0 = no effect, 100 = complete control), Cupgrass, Woolly” value (woolly cupgrass; 125 g ai/ha) of the same molecule?
The value was 55.

What about the “Plant response rating, Cupgrass, Woolly” value (woolly cupgrass; 250 g ai/ha, scale 0-100) of the same molecule?
Its value is 80.

What about the “Plant response rating, Cupgrass, Woolly” value (woolly cupgrass; [8]) of the same molecule?
The value was 80.

What about the “Plant response rating, Sunflower” value ([1]; 62 g ai/ha, scale 0 to 100) of the same molecule?
The value was 0.

What about the “Plant response rating (0 = no effect, 100 = complete control), Sunflower” value ([1]; 125 g ai/ha) of the same molecule?
Its value is 5.

What about the “Plant response rating, Sunflower” value [1, 8] of the same molecule?
The value was 55.

What about the “Plant response rating, Foxtail, Giant” value (giant foxtail; 62 g ai/ha, scale 0 to 100) of the same molecule?
Its value is 30.

What about the “Plant response rating (0 = no effect, 100 = complete control), Foxtail, Giant” value (giant foxtail; 125 g ai/ha) of the same molecule?
The value was 85.

What about the “Plant response rating, Foxtail, Giant” value (giant foxtail; 250 g ai/ha, scale 0-100) of the same molecule?
Its value is 95.

And the “Plant response rating, Foxtail, Giant” value (giant foxtail; [8])?
The value was 95.

What about the “Plant response rating, Bermudagrass” value (bermudagrass; 62 g ai/ha, scale 0 to 100, 0 no effect, 100 complete control) of the same molecule?
The value was 40.

What about the “Plant response rating (0 = no effect, 100 = complete control), Bermudagrass” value (bermudagrass; 125 g ai/ha) of the same molecule?
The value was 50.

And the “Plant response rating, Bermudagrass” value (bermudagrass; 250 g ai/ha, scale 0-100)?
Its value is 85.

And the “Plant response rating, Bermudagrass” value (bermudagrass; [8])?
The value was 85.

What about the “Plant response rating, Velvetleaf” value (velvetleaf; 62 g ai/ha, scale 0 to 100) of the same molecule?
Its value is 5.

And the “Plant response rating (0 = no effect, 100 = complete control), Velvetleaf” value (velvetleaf; 125 g ai/ha)?
The value was 30.

What about the “Plant response rating, Velvetleaf” value (velvetleaf; [8]) of the same molecule?
The value was 100.

And the “Plant response rating, Nutsedge, Yellow” value (yellow nutsedge; 62 g ai/ha, scale 0 to 100)?
The value was 0.

And the “Plant response rating (0 = no effect, 100 = complete control), Nutsedge, Yellow” value (yellow nutsedge; 125 g ai/ha)?
Its value is 0.

What about the “Plant response rating, Nutsedge, Yellow” value (yellow nutsedge; [8]) of the same molecule?
The value was 55.
